Data set [1] concerns the target T1, human amylin receptor (calcitonin receptor co-expressed with receptor activity modifying protein, RAMP3) (hAMYR3) (Homo sapiens, UniProt O60896+P30988).
T1 construct: expressed in transfected cells
T1 sequence (P30988 25-474): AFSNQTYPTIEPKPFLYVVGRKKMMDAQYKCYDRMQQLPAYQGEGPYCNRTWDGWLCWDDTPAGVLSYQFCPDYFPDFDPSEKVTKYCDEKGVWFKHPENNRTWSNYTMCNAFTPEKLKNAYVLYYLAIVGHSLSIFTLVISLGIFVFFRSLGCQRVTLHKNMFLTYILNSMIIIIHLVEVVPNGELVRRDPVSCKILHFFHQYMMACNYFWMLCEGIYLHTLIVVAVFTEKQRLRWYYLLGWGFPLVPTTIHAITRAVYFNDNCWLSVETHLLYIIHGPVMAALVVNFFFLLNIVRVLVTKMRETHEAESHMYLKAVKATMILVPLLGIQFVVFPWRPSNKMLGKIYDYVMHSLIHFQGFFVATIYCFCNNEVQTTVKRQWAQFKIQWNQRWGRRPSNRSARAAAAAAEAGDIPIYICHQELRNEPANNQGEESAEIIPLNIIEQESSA
T1 sequence (O60896 24-148 partner): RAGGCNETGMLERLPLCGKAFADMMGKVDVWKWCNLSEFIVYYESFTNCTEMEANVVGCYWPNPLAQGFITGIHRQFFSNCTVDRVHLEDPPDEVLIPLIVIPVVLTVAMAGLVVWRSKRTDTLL
The data set is described as follows: cAMP production in 1321N1 cells with stable recombinant expression of human amylin receptor (hAMYR3). Format: cell-based. The conditions noted are these: for Ratio (selectivity hAMYR vs hCTR, ratio of EC50 values at the two receptors): EC50 hCTR / EC50 hAMYR3; for EC50: cAMP, 1321N1 cells, assay buffer with 0.1% BSA, read-out: EC50 (pM) hAMYR3. The method in brief: (§1)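 Receptor-expressing cells (human receptors in 1321N1, rat receptors in HEK) incubated 30 min at room temperature with peptide in HBSS/HEPES pH 7.4, 0.1% BSA, 0.5 mM IBMX. cAMP read by HTRF; EC50 from 4-parameter fit as % of maximal amylin or calcitonin response.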

The target of data set [2] is T2, human calcitonin receptor (hCTR) (Homo sapiens, UniProt P30988).
T2 construct: expressed in transfected cells
T2 sequence (P30988 25-474): T1 sequence (P30988 25-474)
The data set is described as follows: cAMP production in 1321N1 cells with stable recombinant expression of human calcitonin receptor (hCTR). Format: cell-based. The note with it: cAMP, 1321N1 cells, assay buffer with 0.1% BSA; read-out: EC50 (pM) hCTR. The method in brief:
as §1

Data set [3] is described as follows: Thioflavin T fibrillation assay. Format: physicochemical. The note with it: ThT fibrillation assay; peptide 1 mg/mL in 25 mM sodium acetate buffer pH 4.0; 6 days at 37 °C with shaking; >144 h = no increase. From the text: Peptide aggregation that form fibrils is an indication of physical instability. Fibril formation in solution poses a significant risk for the stability of injectable peptide drug products. Thioflavin T (ThT) fibrillation assay is a useful tool to assess the aggregation kinetics of a peptide or protein under accelerated and stressed conditions that can be used to forecast the long-term viability of a compound in solution. ThT can selectively bind amyloid fibrils and the resultant complex emits strong fluorescence signal at 482 nm when excited at 450 nm (Anal Biochem. 1989 Mar;177(2):244-9). Monitoring of the change in fluorescence signal is an established method to study the fibril forming potential of peptides and proteins. ThT (purchased from Sigma Aldrich) stock solution is prepared by dissolving the ThT powder in Milli-Q water and filtered to obtain a 0.25 mM solution. The concentration of the solution is measured at 412 nm using an extinction coefficient of 36 mM^−1cm^−1. Test peptides were dissolved at 1 mg/mL in 25 mM sodium acetate buffer pH 4.0. 100 μL aliquot of peptide solution and 5 μL aliquot of ThT solution were placed in a clear bottom black fluorescence 96-well plate. 5 replicates of each test samples were placed in zo the same row of the plate. Buffer was placed in control wells for baseline correction. All empty wells were filled with water to prevent evaporation. The plate was sealed with aluminium seal and placed in fluorescence plate reader and incubated for 6 days at 37 ° C. with intermittent orbital shaking at 500 to 750 rpm. The fluorescence intensity was measured every 30 min using excitation at 444 nm and emission at 480 nm. The fibril forming potential of the test peptides was determined by measuring the average time taken to detect an increase in baseline corrected fluorescence intensity.

Consider four compounds from patent US20240067693A1, “POLYPEPTIDES AND USES THEREOF” (MEDIMMUNE LIMITED, priority 2020, published 2024).

Numbered stars: 1 amine (or outer) side, 2 acyl side, 3 side chain; on linkers, the order of the positions; unused ones are H or OH. Bridge positions count the residues as written; N and C are the ends. Square brackets hold non-standard residues; d marks the D form. Side chains are listed from the residue outwards. Peptide text beside a SMILES is read from it. * marks the point of attachment. C18 diacid = O=C(O)CCCCCCCCCCCCCCCCC(=O)*; γGlu = O=C(O)[C@H](CCC(=O)[*:2])N[*:1]; αMeF = C[C@](N)(Cc1ccccc1)C(=O)O; Dab = NCC[C@H](N)C(=O)O; AEEA = NCCOCCOCC(=O)O; Aib = CC(C)(N)C(=O)O

As for `CC[C@H](C)[C@H](NC(=O)[C@@H]1CCCN1C(=O)CNC(=O)[C@H](Cc1ccccc1)NC(=O)[C@H](CC(N)=O)NC(=O)[C@H](CC(N)=O)NC(=O)[C@H](CO)NC(=O)[C@H](CO)NC(=O)[C@H](Cc1c[nH]cn1)NC(=O)C(C)(C)NC(=O)[C@H](CC(C)C)NC(=O)[C@H](Cc1ccccc1)NC(=O)[C@H](CCN)NC(=O)[C@H](C)NC(=O)[C@H](CC(C)C)NC(=O)[C@H](CCCNC(=N)N)NC(=O)[C@H](CCC(N)=O)NC(=O)[C@@H](NC(=O)[C@H](C)NC(=O)[C@@H]1CSSC[C@H](NC(=O)[C@H](CCCCN)NC(=O)[C@@H](N)CCCCNC(=O)CC[C@H](NC(=O)CCCCCCCCCCCCCCCCC(=O)O)C(=O)O)C(=O)N[C@@H](CC(N)=O)C(=O)N[C@@H]([C@@H](C)O)C(=O)N[C@@H](C)C(=O)N[C@@H]([C@@H](C)O)C(=O)N1)[C@@H](C)O)C(=O)N[C@@H](CC(C)C)C(=O)N1CCC[C@H]1C(=O)N1CCC[C@H]1C(=O)N[C@H](C(=O)N[C@@H](CCC(=O)O)C(=O)N[C@H](C(=O)NCC(=O)N[C@@H](CO)C(=O)N[C@@H](CC(N)=O)C(=O)N[C@H](C(=O)N[C@@H](Cc1ccc(O)cc1)C(N)=O)[C@@H](C)O)C(C)C)[C@@H](C)O` [Peptide 156] (H-K([γGlu-C18 diacid])KCNTATCATQRLA[Dab]FL[Aib]HSSNNFGPILPPTEVGSNTY-NH2; disulfide 3-8), in data set [1], the “Ratio (selectivity hAMYR vs hCTR, ratio of EC50 values at the two receptors)” value was 22.3 and the EC50 amounted to 3750 pM. In addition, the EC50 in data set [2] stood at 83800 pM. Besides, the “Time taken to detect increase in fluorescence intensity” value (from here on “Time taken to detect increase”) in data set [3] is listed as >144 h.

Regarding `CC[C@H](C)[C@H](NC(=O)[C@@H]1CCCN1C(=O)CNC(=O)[C@H](Cc1ccccc1)NC(=O)[C@H](CC(N)=O)NC(=O)[C@H](CC(N)=O)NC(=O)[C@H](CO)NC(=O)[C@H](CO)NC(=O)[C@H](Cc1c[nH]cn1)NC(=O)[C@@H](NC(=O)[C@H](CC(C)C)NC(=O)[C@H](Cc1ccccc1)NC(=O)[C@H](CCN)NC(=O)[C@H](C)NC(=O)[C@H](CC(C)C)NC(=O)[C@H](CCCNC(=N)N)NC(=O)[C@H](CCC(N)=O)NC(=O)[C@@H](NC(=O)[C@H](C)NC(=O)[C@@H]1CSSC[C@H](NC(=O)[C@H](CCCCN)NC(=O)[C@@H](N)CCCCNC(=O)CC[C@H](NC(=O)CCCCCCCCCCCCCCCCC(=O)O)C(=O)O)C(=O)N[C@@H](CC(N)=O)C(=O)N[C@@H]([C@@H](C)O)C(=O)N[C@@H](C)C(=O)N[C@@H]([C@@H](C)O)C(=O)N1)[C@@H](C)O)C(C)C)C(=O)N[C@@H](CC(C)C)C(=O)N1CCC[C@H]1C(=O)N1CCC[C@H]1C(=O)N[C@H](C(=O)N[C@@H](CC(N)=O)C(=O)N[C@H](C(=O)NCC(=O)N[C@@H](CO)C(=O)N[C@@H](CC(N)=O)C(=O)N[C@H](C(=O)N[C@@H](Cc1ccc(O)cc1)C(N)=O)[C@@H](C)O)C(C)C)[C@@H](C)O` [Peptide 33] (H-K([γGlu-C18 diacid])KCNTATCATQRLA[Dab]FLVHSSNNFGPILPPTNVGSNTY-NH2; disulfide 3-8; N-terminus assumed), in data set [1], the “Ratio (selectivity hAMYR vs hCTR, ratio of EC50 values at the two receptors)” value is 26 and the 50% effective concentration (EC50) worked out at 598 pM. In addition, in data set [2], the EC50 is 15800 pM. Also, the “Time taken to detect increase” value in data set [3] is given as >144 h.

Turning to `CC[C@H](C)[C@H](NC(=O)[C@@H]1CCCN1C(=O)CNC(=O)[C@](C)(Cc1ccccc1)NC(=O)[C@H](CC(N)=O)NC(=O)[C@H](CC(N)=O)NC(=O)[C@H](CO)NC(=O)[C@H](CO)NC(=O)[C@H](Cc1c[nH]cn1)NC(=O)[C@H](CCCNC(=N)N)NC(=O)[C@H](CC(C)C)NC(=O)[C@H](Cc1ccccc1)NC(=O)[C@H](CC(N)=O)NC(=O)[C@H](C)NC(=O)[C@H](CC(C)C)NC(=O)[C@H](CCCNC(=N)N)NC(=O)[C@H](CCC(N)=O)NC(=O)[C@@H](NC(=O)[C@H](C)NC(=O)[C@@H]1CSSC[C@H](NC(=O)[C@@H](N)CCCCNC(=O)COCCOCCNC(=O)COCCOCCNC(=O)CC[C@H](NC(=O)CCCCCCCCCCCCCCCCC(=O)O)C(=O)O)C(=O)N[C@@H](CC(N)=O)C(=O)N[C@@H]([C@@H](C)O)C(=O)N[C@@H](C)C(=O)N[C@@H]([C@@H](C)O)C(=O)N1)[C@@H](C)O)C(=O)N[C@@H](CC(C)C)C(=O)N1CCC[C@H]1C(=O)N1CCC[C@H]1C(=O)N[C@H](C(=O)N[C@@H](CCC(=O)O)C(=O)N[C@H](C(=O)NCC(=O)N[C@@H](CO)C(=O)N[C@@H](CC(N)=O)C(=O)N[C@H](C(=O)N[C@@H](Cc1ccc(O)cc1)C(N)=O)[C@@H](C)O)C(C)C)[C@@H](C)O` [Peptide 17, K(O2Oc-O2Oc-γE-C18diacid)[CNTATC]ATQRLANFLRHSSNN(αMePhe)GPILPPTEVGSNTY-amide] (H-K([AEEA-AEEA-γGlu-C18 diacid])CNTATCATQRLANFLRHSSNN[αMeF]GPILPPTEVGSNTY-NH2; disulfide 2-7; N-terminus assumed), in data set [1], the “Ratio (selectivity hAMYR vs hCTR, ratio of EC50 values at the two receptors)” value turned out to be 19 and the concentration for a half-maximal effect (EC50) turned out to be 365 pM. For the same compound, the EC50 in data set [2] was 7080 pM. Moreover, the “Time taken to detect increase” value in data set [3] was >144 h.

As for `CC[C@H](C)[C@H](NC(=O)[C@@H]1CCCN1C(=O)CNC(=O)[C@H](Cc1ccccc1)NC(=O)[C@H](CC(N)=O)NC(=O)[C@H](CC(N)=O)NC(=O)[C@H](CO)NC(=O)[C@H](CO)NC(=O)[C@H](Cc1c[nH]cn1)NC(=O)[C@@H](NC(=O)[C@H](CC(C)C)NC(=O)[C@H](Cc1ccccc1)NC(=O)[C@H](CC(N)=O)NC(=O)[C@H](C)NC(=O)[C@H](CC(C)C)NC(=O)[C@H](CCCNC(=N)N)NC(=O)[C@H](CCC(N)=O)NC(=O)[C@@H](NC(=O)[C@H](C)NC(=O)[C@@H]1CSSC[C@H](NC(=O)[C@@H](N)CCCCNC(=O)CC[C@H](NC(=O)CCCCCCCCCCCCCCCCC(=O)O)C(=O)O)C(=O)N[C@@H](CC(N)=O)C(=O)N[C@@H]([C@@H](C)O)C(=O)N[C@@H](C)C(=O)N[C@@H]([C@@H](C)O)C(=O)N1)[C@@H](C)O)C(C)C)C(=O)N[C@H](CC(C)C)C(=O)N1CCC[C@H]1C(=O)N1CCC[C@H]1C(=O)N[C@H](C(=O)N[C@@H](CC(N)=O)C(=O)N[C@H](C(=O)NCC(=O)N[C@@H](CO)C(=O)N[C@@H](CC(N)=O)C(=O)N[C@H](C(=O)N[C@@H](Cc1ccc(O)cc1)C(N)=O)[C@@H](C)O)C(C)C)[C@@H](C)O` [Peptide 103, K(γE-C18diacid)[CNTATC]ATQRLANFLVHSSNNFGPI(dL)PPTNVGSNTY-amide] (H-K([γGlu-C18 diacid])CNTATCATQRLANFLVHSSNNFGPI[dL]PPTNVGSNTY-NH2; disulfide 2-7; N-terminus assumed), the “Ratio (selectivity hAMYR vs hCTR, ratio of EC50 values at the two receptors)” value in data set [1] was found to be 12. Further, the EC50 in data set [1] stood at 161 pM; in data set [2] it was 1880 pM. Further, the “Time taken to detect increase” value in data set [3] is listed as <5 h.
